A short description of one data set: LogP. Format: physicochemical. To be noted: read-out: LogP. The text has this: (§1) Further discussion, and assays for testing log P, molecular weight and water solubility are described in U.S. patent application Ser. Nos. 11/357,687 and 11/505,591, which are incorporated herein by reference.
A short description of a further data set: Plasma protein binding. It is filed as in vitro ADME.
The next data set in a line: Water solubility. Format: physicochemical.
Source text: as §1

Where only a bound is given, the exact number is not on record here.

For `OB1OCc2cc(Cl)ccc21` [drawing 89], the logP (in general, a log measure of how a compound divides between an organic and an aqueous phase) in “LogP” was determined as 2.3. Also, in the data set “Plasma protein binding”, the fraction unbound (commonly free concentration divided by total concentration) was 0.17. Besides, the solubility (commonly the dissolved amount per volume that the medium holds) in “Water solubility” was greater than 100 µg/mL.

Turning to `OB1OCc2cc(F)ccc21` [drawing 88], the logP in the data set “LogP” came out at 1.9. For the same compound, in the data set “Plasma protein binding”, the fraction unbound was 0.34. Also, the solubility in the data set “Water solubility” was greater than 100 µg/mL.

Source of the values: patent US8106031B2, “Hydrolytically-resistant boron-containing therapeutics and methods of use” (Anacor Pharmaceuticals, Inc., priority 2006, dated 2012).
